Assay results reported in ChEMBL document CHEMBL1142323, “Inhibition of carbonic anhydrases with glycosyltriazole benzene sulfonamides” (J Med Chem, 2008).

How the values were obtained:
Carbonic anhydrase 2 = Carbonic anhydrase 2 (Homo sapiens, UniProt P00918)
Carbonic anhydrase 9 = Carbonic anhydrase 9 (Homo sapiens, UniProt Q16790)
Carbonic anhydrase 1 = Carbonic anhydrase 1 (Homo sapiens, UniProt P00915)
Carbonic anhydrase 1, sequence (P00915 whole entry): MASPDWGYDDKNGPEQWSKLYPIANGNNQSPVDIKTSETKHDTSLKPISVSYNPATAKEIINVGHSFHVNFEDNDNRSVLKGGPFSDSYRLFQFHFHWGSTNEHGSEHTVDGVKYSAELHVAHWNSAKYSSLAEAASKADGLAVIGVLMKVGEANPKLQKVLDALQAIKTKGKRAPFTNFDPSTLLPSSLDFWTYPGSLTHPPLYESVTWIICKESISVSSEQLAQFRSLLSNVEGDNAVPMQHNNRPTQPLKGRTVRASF

SMILES | Ki (Carbonic anhydrase 9) [nM] | Ki (Carbonic anhydrase 2) [nM] | Ki (Carbonic anhydrase 1) [nM]
CC(=O)O[C@H]1[C@H](OC(C)=O)C(n2cc(-c3ccc(S(N)(=O)=O)cc3)nn2)OC[C@H]1OC(C)=O (single isomer, unassigned) | 134 | – | –
CC(=O)OC[C@H]1O[C@@H](n2cc(-c3ccc(S(N)(=O)=O)cc3)nn2)[C@H](OC(C)=O)[C@@H](OC(C)=O)[C@@H]1O[C@H]1O[C@H](COC(C)=O)[C@@H](OC(C)=O)[C@H](OC(C)=O)[C@H]1OC(C)=O | 120 | – | –
COC(=O)[C@H]1O[C@@H](n2cc(-c3ccc(S(N)(=O)=O)cc3)nn2)[C@H](OC(C)=O)[C@@H](OC(C)=O)[C@@H]1OC(C)=O | 9.9 | – | –
COC(=O)[C@H]1O[C@@H](n2cc(-c3ccc(S(N)(=O)=O)cc3)nn2)[C@H](O)[C@@H](O)[C@@H]1O | 8.4 | – | –
CC(=O)OC[C@H]1O[C@@H](n2cc(-c3ccc(S(N)(=O)=O)cc3)nn2)[C@H](OC(C)=O)[C@@H](OC(C)=O)[C@H]1OC(C)=O | 110 | 8.7 | 4300
CC(=O)OC[C@H]1O[C@@H](n2cc(-c3ccc(S(N)(=O)=O)cc3)nn2)[C@H](OC(C)=O)[C@@H](OC(C)=O)[C@@H]1OC(C)=O | – | 9.1 | 4400
CC(=O)OC[C@H]1OC(n2cc(-c3ccc(S(N)(=O)=O)cc3)nn2)[C@@H](OC(C)=O)[C@@H](OC(C)=O)[C@@H]1OC(C)=O (single isomer, unassigned) | 5 | 2.1 | 1.6

More lines, main results first:

Ki (Carbonic anhydrase 9) [nM] | SMILES | Ki (Carbonic anhydrase 2) [nM] | Ki (Carbonic anhydrase 1) [nM]
120 | NS(=O)(=O)c1ccc(-c2cn([C@@H]3O[C@H](CO)[C@H](O)[C@H](O)[C@H]3O)nn2)cc1 | 8.8 | 9.3
101 | CC(=O)N[C@@H]1[C@@H](OC(C)=O)[C@H](OC(C)=O)[C@@H](COC(C)=O)O[C@H]1n1cc(-c2ccc(S(N)(=O)=O)cc2)nn1 | – | –
89 | NS(=O)(=O)c1ccc(-c2cn([C@@H]3O[C@H](CO)[C@@H](O)[C@H](O)[C@H]3O)nn2)cc1 | 380 | 9.4
5.4 | NS(=O)(=O)c1ccc(-c2cn(C3O[C@H](CO)[C@@H](O)[C@H](O)[C@@H]3O)nn2)cc1 (single isomer, unassigned) | 7.6 | 2.8
121 | NS(=O)(=O)c1ccc(-c2cn([C@@H]3O[C@H](CO)[C@@H](O)[C@H]3O)nn2)cc1 | – | –
130 | NS(=O)(=O)c1ccc(-c2cn([C@@H]3O[C@H](CO)[C@@H](O[C@H]4O[C@H](CO)[C@@H](O)[C@H](O)[C@H]4O)[C@H](O)[C@H]3O)nn2)cc1 | – | –
